Patent publication US20120016010A1, “RNA Interference Mediated Inhibition of BTB and CNC Homology 1, Basic Leucine Zipper Transcription Factor 1 (BACH1) Gene Expression Using Short Interfering Nucleic Acid (siNA)” (Merck Sharp & Dohme Corp, priority 2009, published 2012)

Legend:
[1] = tested on: Bach1 mRNA; assay: Initial screen: Bach1 mRNA knock-down in human A549 cells (96-well transfection, quantitative RT-PCR); assay type: cell-based; conditions: for % KD: Bach1 mRNA, 10 nM siNA, human A549 cells, n = 2, mean ± S.D., normalized to GAPDH and non-targeting control, 24 hrs post-transfection; for % KD Bach1: Table 5, Bach1 mRNA screening data, A549 cells
[2] = tested on: Bach1 mRNA; assay: Bach1 mRNA knockdown and potency in human bronchial epithelial cells (NHBE); assay type: cell-based; conditions: 48 hours post transfection, mean of 3 donors; for EC50: Bach1 mRNA knockdown; for Maximum mRNA knockdown: Bach1 mRNA
Experimental: The siNAs with Duplex ID numbers corresponding to 29961-DC, 29964-DC, 29984-DC, 29988-DC, 29957-DC, 29947-DC, and 29956-DC were tested for maximum Bach1 mRNA knockdown and for potency in human bronchial epithelial cells as follows.
Human Bronchial Epithelial cells (NHBE cells) obtained from Lonza (Cat. No. CC-2540) were grown at 37deg in the presence of 5% CO2 and cultured in BEBM basal medium (Lonza, Cat. No. CC-3171) on Biocoat Collagen1 coated flasks (Becton Dickinson).
NHBE cells were plated in collagen 1 coated plates and cultured in appropriate culture media. The cells were cultured for 24 hours after plating at 37 degrees in the presence of 5% CO2. siNAs were diluted in OptiMEM 1 to 1 uM and the transfection agent to 25 ug/ml. For formulation of the siNAs equal volumes of the diluted siNA and delivery lipid were combined and incubated for 20 minutes at room temperature. Cells were meanwhile trypsinised and resuspended in antibiotic free BEBM media at 150,000 cells/ml. 20 ul of the formulated siNA and 80 ul of BEBM media was added per well of a 96 well plate (6 replicates/data point/siNA concentration) so as to give a nine point dose range of the siNAs (100 nM, 30 nM, 10 nM, 3 nM, 1 nM, 0.3 nM, 0.1 nM, 0.03 nM, 0.01 nM). The time of incubation with the transfection-siNA complexes were 48 hours with one change of media at 24 hours.
Total RNA was isolated from the cells in the 96-well plate format using the Automated SV96 Total RNA Isolation System (Promega) according to the manufacturer's instructions. The Biomek 2000 Laboratory Automation Workstation (Beckman Coulter) was used to apply the transfected cell lysates to a silica membrane. RNase-Free DNase I was then applied directly to the silica membrane to digest contaminating genomic DNA. The bound total RNA was further purified from contaminating salts, proteins and cellular impurities by simple washing steps. Finally, total RNA was eluted from the membrane by the addition of Nuclease-Free Water.
A series of probes and primers were used for the detection of mRNA transcripts of Bach1, OAS1, IL8 and GAPDH (as control/normalisation) in the human cell lines. The assays were performed on an ABI 7900HT instrument according to the manufacturer's instructions. Primer Probe sets used:
With Taqman data critical threshold values (Ct) were converted to copy numbers corresponding to the particular gene analysed in each well of the 384 well plate. Six identical wells were prepared in each plate for a given treatment. […] Determination of the percentage coefficient of variation (CV) (% C.V.=[standard deviation/average]*100) allowed the omitting of wells whose value was an outlier (so that % C.V.<25). Relative abundance (aka relative expression) of a gene was determined by dividing the mean copy number of that gene with its GAPDH counterpart in that particular sample.
EC50 values were calculated from the data using sigma plot. All calculations of the efficacy and potency of the siNAs were done relative to the non-targeting control siNA. Percentage knockdown was compared between the four lead siNA's. The data was analysed using an ANOVA test and then the p-values were corrected for multiple comparisons using the False Discovery Rate correction (FDR).

Substance	% KD [1]	% KD Bach1 [1]	EC50 [2]	Maximum mRNA knockdown [2]
29947-DC (sense GGAAUCCUGCUUUCAGUUUTT; antisense AAACUGAAAGCAGGAUUCCUU; inverted abasic caps (B), 2'-modified nucleotides, further chemistry not given here)	83.4 ± 6.9%	83.4 ± 6.9%	4.31 nM	65%
29956-DC (sense GUCUGAGUGUCCGUGGUUATT; antisense UAACCACGGACACUCAGACUU; inverted abasic caps (B), 2'-modified nucleotides, further chemistry not given here)	75.8 ± 7.7%	75.8 ± 7.7%	2.16 nM	68%
29957-DC (sense GCAGUUACUUCCACUCAAGTT; antisense CUUGAGUGGAAGUAACUGCUU; inverted abasic end caps, TT overhangs, modified nucleotides, further chemistry not given here)	84.6 ± 5.4%	84.6 ± 5.4%	0.95 nM	70%
29961-DC (sense CUACACUGCUAAACUGAUUTT; antisense AAUCAGUUUAGCAGUGUAGUU; inverted abasic end caps, TT overhangs, modified nucleotides, further chemistry not given here)	90 ± 1.3%	90 ± 1.3%	7.87 nM	80%
29964-DC (sense GAUUUGCAGGUGAUGUUAATT; antisense UUAACAUCACCUGCAAAUCUU; inverted abasic end caps, TT overhangs, modified nucleotides, further chemistry not given here)	90.1 ± 0.8%	90.1 ± 0.8%	9.52 nM	72%
29984-DC (sense GUUAAAGGAUUUGAACCUUTT; antisense AAGGUUCAAAUCCUUUAACUU; inverted abasic end caps, TT overhangs, modified nucleotides, further chemistry not given here)	66.2 ± 15.3%	–	23.2 nM	65%
29988-DC (sense AUUUGAACCUUUAAUUCAGTT; antisense CUGAAUUAAAGGUUCAAAUUU; inverted abasic end caps, TT overhangs, modified nucleotides, further chemistry not given here)	86.2 ± 3.1%	86.2 ± 3.1%	3.84 nM	70%
